Experimental data published in PMC2492869 (BMC Microbiology, 2008).

Molecular target: T1, Brucella suis urease (ure-1 operon) (Brucella suis, UniProt Q8G2P8)
T1 construct: gene ureC1
Experiment: biochemical

T1 sequence (Q8G2P8 whole entry, looked up): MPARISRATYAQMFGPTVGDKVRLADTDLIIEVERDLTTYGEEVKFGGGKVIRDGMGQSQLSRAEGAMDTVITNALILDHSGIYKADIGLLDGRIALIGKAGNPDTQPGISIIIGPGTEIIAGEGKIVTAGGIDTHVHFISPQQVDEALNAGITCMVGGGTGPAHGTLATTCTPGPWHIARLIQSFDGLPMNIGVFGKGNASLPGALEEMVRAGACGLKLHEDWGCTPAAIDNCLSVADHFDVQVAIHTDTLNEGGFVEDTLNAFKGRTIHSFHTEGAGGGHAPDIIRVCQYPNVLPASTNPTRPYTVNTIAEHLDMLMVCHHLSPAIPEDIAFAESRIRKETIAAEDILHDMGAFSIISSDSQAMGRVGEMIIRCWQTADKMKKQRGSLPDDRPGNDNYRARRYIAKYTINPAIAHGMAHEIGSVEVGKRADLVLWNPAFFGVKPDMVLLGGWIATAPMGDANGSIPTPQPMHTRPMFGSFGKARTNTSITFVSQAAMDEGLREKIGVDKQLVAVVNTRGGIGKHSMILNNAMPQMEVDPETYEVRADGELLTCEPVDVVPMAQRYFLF

CC(=O)NO [acetohydroxamic acid] showed a Ki of 0.77 ± 0.06 mM.

With NC(=O)NO [hydroxyurea] the Ki was 1.04 ± 0.31 mM.

Molecule NC(N)=S [thiourea] has a Ki of 26.1 ± 2.3 mM.
